What is called IC50 is the concentration that gives 50% inhibition. Broadly, the Ki is a measure of affinity in units of concentration, obtained from inhibition or displacement.

This passage reports IC50 and Ki results from ChEMBL document CHEMBL1909046, “DrugMatrix in vitro pharmacology data”.

A short description of assay [1]: DRUGMATRIX: Calcium Channel Type L, Phenylalkylamine radioligand binding (ligand: [3H] (-)-Desmethoxyverapamil (D-888)). It is filed as cell membranes, Rattus norvegicus, Wistar, Brain, Membrane. To be noted: Not Active = under 50% inhibition at 10 µM.
In assay [2] the target is Vascular endothelial growth factor receptor 1 (Homo sapiens, UniProt P17948). The assay is described as follows: biochemical. The assay is classed as cell-based, HUVEC. To be noted: huvec. Further: in other assays of this panel Not Active means under 50% inhibition at 10 µM.
Assay [3] addresses T1, Alpha-2A adrenergic receptor (Homo sapiens, UniProt P08913).
T1 sequence (P08913 whole entry): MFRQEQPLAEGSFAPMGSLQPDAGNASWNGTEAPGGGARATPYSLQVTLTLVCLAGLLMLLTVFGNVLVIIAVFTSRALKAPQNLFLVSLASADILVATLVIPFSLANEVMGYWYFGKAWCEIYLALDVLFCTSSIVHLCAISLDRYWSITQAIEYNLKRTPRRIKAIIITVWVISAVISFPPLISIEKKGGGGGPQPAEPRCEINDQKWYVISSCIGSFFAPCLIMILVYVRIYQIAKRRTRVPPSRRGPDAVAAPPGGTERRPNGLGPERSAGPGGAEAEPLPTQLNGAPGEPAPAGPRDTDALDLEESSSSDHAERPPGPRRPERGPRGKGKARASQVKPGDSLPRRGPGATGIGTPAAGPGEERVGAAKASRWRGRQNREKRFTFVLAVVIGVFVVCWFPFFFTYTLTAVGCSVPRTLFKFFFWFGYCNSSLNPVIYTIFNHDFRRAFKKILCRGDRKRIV
It is filed as cell membranes, Sf9, Membrane. The settings on record: sf9.

Assay [4] can be described thus: DRUGMATRIX: Imidazoline I2, Central radioligand binding (ligand: [3H] Idazoxan). It is filed as cell membranes, Rattus norvegicus, Wistar, Cerebral cortex, Membrane. The settings on record: Not Active = under 50% inhibition at 10 µM.
Assay [5] in a line: DRUGMATRIX: Glutamate, NMDA, Phencyclidine radioligand binding (ligand: [3H] TCP). The assay is classed as cell membranes, Rattus norvegicus, Wistar, Cerebral cortex, Membrane. The settings on record: Not Active = under 50% inhibition at 10 µM.

Sequence of Vascular endothelial growth factor receptor 1 (P17948 whole entry): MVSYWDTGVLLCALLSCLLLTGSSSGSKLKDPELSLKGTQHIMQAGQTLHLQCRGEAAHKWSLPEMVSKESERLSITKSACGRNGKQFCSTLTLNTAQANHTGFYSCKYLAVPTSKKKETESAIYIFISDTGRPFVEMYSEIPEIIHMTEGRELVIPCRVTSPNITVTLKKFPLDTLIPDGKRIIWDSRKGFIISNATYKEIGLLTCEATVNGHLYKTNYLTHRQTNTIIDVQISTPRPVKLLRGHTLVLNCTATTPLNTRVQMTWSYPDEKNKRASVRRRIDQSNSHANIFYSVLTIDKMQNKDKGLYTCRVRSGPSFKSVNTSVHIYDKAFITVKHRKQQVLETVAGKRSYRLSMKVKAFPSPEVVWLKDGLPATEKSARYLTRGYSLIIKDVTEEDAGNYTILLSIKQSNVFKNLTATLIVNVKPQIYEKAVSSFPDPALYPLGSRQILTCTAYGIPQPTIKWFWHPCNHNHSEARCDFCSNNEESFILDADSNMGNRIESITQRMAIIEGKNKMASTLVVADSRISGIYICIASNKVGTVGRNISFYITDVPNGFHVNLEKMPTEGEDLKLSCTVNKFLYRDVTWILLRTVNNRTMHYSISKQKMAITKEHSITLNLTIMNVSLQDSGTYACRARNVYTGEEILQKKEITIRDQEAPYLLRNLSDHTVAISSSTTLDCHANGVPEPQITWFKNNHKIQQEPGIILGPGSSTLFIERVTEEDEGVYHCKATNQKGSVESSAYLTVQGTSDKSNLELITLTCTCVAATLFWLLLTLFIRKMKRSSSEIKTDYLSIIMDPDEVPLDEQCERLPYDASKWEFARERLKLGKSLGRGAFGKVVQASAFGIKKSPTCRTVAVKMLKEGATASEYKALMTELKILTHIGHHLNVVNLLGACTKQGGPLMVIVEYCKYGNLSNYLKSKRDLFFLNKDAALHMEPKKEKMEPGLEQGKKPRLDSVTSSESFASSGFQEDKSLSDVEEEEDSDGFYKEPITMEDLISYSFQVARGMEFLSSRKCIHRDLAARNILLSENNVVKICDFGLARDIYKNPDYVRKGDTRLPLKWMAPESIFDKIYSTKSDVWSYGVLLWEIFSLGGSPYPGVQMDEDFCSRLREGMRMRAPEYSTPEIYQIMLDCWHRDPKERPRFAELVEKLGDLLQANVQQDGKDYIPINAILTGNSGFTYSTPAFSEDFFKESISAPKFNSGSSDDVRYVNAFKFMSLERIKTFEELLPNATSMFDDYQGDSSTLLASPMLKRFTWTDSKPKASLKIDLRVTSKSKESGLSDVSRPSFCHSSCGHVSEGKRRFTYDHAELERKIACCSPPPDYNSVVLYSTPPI

With `O=C(c1ccccc1C(F)(F)F)N1CCC(Cc2ccccc2)CC1`, the IC50 entry in assay [1], in assay [2], in assay [3], in assay [4] and in assay [5] was “Not Active” throughout. The Ki result in assay [1], in assay [4] and in assay [5] was “Not Active” throughout.
With `O=C/C=C/c1ccccc1`, the half-inhibitory concentration (IC50) entry in assay [1], in assay [2], in assay [3], in assay [4] and in assay [5] was “Not Active” throughout. For the same compound, the Ki result in assay [1], in assay [4] and in assay [5] was “Not Active” in each case.
`Nc1ccc2c3c(cccc13)C(=O)NC2=O`: the IC50 entry in assay [1], in assay [2], in assay [3], in assay [4] and in assay [5] was “Not Active” each time. Moreover, the Ki result in assay [1], in assay [4] and in assay [5] was “Not Active” in each case.
For `COc1ccc(C(=O)N2CCCC2=O)cc1`, the IC50 result in assay [1], in assay [2], in assay [3], in assay [4] and in assay [5] was “Not Active” each time. Moreover, the Ki entry in assay [1], in assay [4] and in assay [5] was “Not Active” each time.
With `O=c1cnn([C@@H]2O[C@H](CO)[C@@H](O)[C@H]2O)c(=O)[nH]1` [6-AZAURIDINE], the IC50 entry in assay [1], in assay [2], in assay [3], in assay [4] and in assay [5] was “Not Active” throughout. In addition, the Ki result in assay [1], in assay [4] and in assay [5] was “Not Active” each time.
For the compound `CC[C@H](C)[C@H]1O[C@]2(C=C[C@@H]1C)C[C@@H]1C[C@@H](C/C=C(\C)[C@@H](O[C@H]3C[C@H](OC)[C@@H](O[C@H]4C[C@H](OC)[C@@H](O)[C@H](C)O4)[C@H](C)O3)[C@@H](C)/C=C/C=C3\CO[C@@H]4[C@H](O)C(C)=C[C@@H](C(=O)O1)[C@]34O)O2.CO[C@H]1C[C@H](O[C@H]2[C@H](C)O[C@@H](O[C@@H]3/C(C)=C/C[C@@H]4C[C@@H](C[C@]5(C=C[C@H](C)[C@@H](C(C)C)O5)O4)OC(=O)[C@@H]4C=C(C)[C@@H](O)[C@H]5OC/C(=C\C=C\[C@@H]3C)[C@]54O)C[C@@H]2OC)O[C@@H](C)[C@@H]1O` [ABAMECTIN], the half-inhibitory concentration (IC50) entry in assay [1], in assay [2], in assay [3], in assay [4] and in assay [5] was “Not Active” throughout. In addition, the Ki result in assay [1], in assay [4] and in assay [5] was “Not Active” each time.
On to `NCCCC(O)(P(=O)(O)O)P(=O)(O)O` [ALENDRONIC ACID], for which the 50% inhibitory concentration (IC50) entry in assay [1], in assay [2], in assay [3], in assay [4] and in assay [5] was “Not Active” throughout. The Ki entry in assay [1], in assay [4] and in assay [5] was “Not Active” each time.
On to `Cc1nnc2n1-c1ccc(Cl)cc1C(c1ccccc1)=NC2` [ALPRAZOLAM], for which the IC50 entry in assay [1], in assay [2], in assay [3], in assay [4] and in assay [5] was “Not Active” in each case. The Ki result in assay [1], in assay [4] and in assay [5] was “Not Active” each time.
Consider `Cn1c(=O)c2[nH]cnc2n(C)c1=O.Cn1c(=O)c2[nH]cnc2n(C)c1=O.NCCN` [AMINOPHYLLINE], for which the IC50 result in assay [1], in assay [2], in assay [3], in assay [4] and in assay [5] was “Not Active” each time. The inhibition constant Ki entry in assay [1], in assay [4] and in assay [5] was “Not Active” in each case.
Regarding `CCC1(CCC(C)C)C(=O)NC(=O)NC1=O` [AMOBARBITAL], the IC50 entry in assay [1], in assay [2], in assay [3], in assay [4] and in assay [5] was “Not Active” throughout. For the same compound, the inhibition constant Ki entry in assay [1], in assay [4] and in assay [5] was “Not Active” each time.
On to `CC1(C)S[C@@H]2[C@H](NC(=O)[C@H](N)c3ccccc3)C(=O)N2[C@H]1C(=O)O` [AMPICILLIN], for which the concentration for half-maximal inhibition (IC50) result in assay [1], in assay [2], in assay [3], in assay [4] and in assay [5] was “Not Active” throughout. The Ki result in assay [1], in assay [4] and in assay [5] was “Not Active” each time.
As for `COc1ccc(C2C(=O)c3ccccc3C2=O)cc1` [ANISINDIONE], the half-inhibitory concentration (IC50) entry in assay [1], in assay [2], in assay [3], in assay [4] and in assay [5] was “Not Active” in each case. Besides, the inhibitory constant (Ki) result in assay [1], in assay [4] and in assay [5] was “Not Active” throughout.
On to `O=C1O[C@H]([C@@H](O)CO)C(O)=C1O` [ASCORBIC ACID], for which the 50% inhibitory concentration (IC50) entry in assay [1], in assay [2], in assay [3], in assay [4] and in assay [5] was “Not Active” each time. In addition, the inhibition constant (Ki) result in assay [1], in assay [4] and in assay [5] was “Not Active” in each case.
In the case of `CN1[C@@H]2CC[C@H]1C[C@@H](OC(=O)C(CO)c1ccccc1)C2` (some centres not stated) [ATROPINE], the IC50 entry in assay [2], in assay [3], in assay [4] and in assay [5] was “Not Active” in each case. Besides, the Ki result in assay [4] and in assay [5] was “Not Active” throughout.
For the compound `CC(C(=O)O)c1ccc2oc(-c3ccc(Cl)cc3)nc2c1` (configuration not stated) [BENOXAPROFEN], the half-inhibitory concentration (IC50) entry in assay [1], in assay [2], in assay [3], in assay [4] and in assay [5] was “Not Active” in each case. The Ki entry in assay [1], in assay [4] and in assay [5] was “Not Active” throughout.
As to `COc1ccc2cc3[n+](cc2c1OC)CCc1cc2c(cc1-3)OCO2.[Cl-]` [BERBERINE CHLORIDE], the IC50 result in assay [1] is “Not Active”; in assay [2], “Not Active”; in assay [3], “Not Active”; in assay [4] (read-out: IC50), 1280 nM; in assay [5], “Not Active”. The figures for the inhibition constant Ki entry in assay [1], in assay [4] (read-out: Ki) and in assay [5] were “Not Active”, 852 nM and “Not Active”, respectively.
For the compound `O=C(O)CCNC(=O)c1ccccc1` [BETAMIPRON], the concentration for half-maximal inhibition (IC50) result in assay [1], in assay [2], in assay [3], in assay [4] and in assay [5] was “Not Active” in each case. The Ki result in assay [1], in assay [4] and in assay [5] was “Not Active” throughout.
For the compound `CC(=O)Oc1ccc(C(c2ccc(OC(C)=O)cc2)c2ccccn2)cc1` [BISACODYL], the concentration for half-maximal inhibition (IC50) result in assay [1], in assay [2], in assay [3], in assay [4] and in assay [5] was “Not Active” throughout. Besides, the Ki entry in assay [1], in assay [4] and in assay [5] was “Not Active” in each case.
For `Cc1cc2c(OCC(CNC(C)(C)C)OC(=O)c3ccccc3)cccc2[nH]1` (configuration not stated) [BOPINDOLOL], the IC50 is 2900 nM in assay [1] (read-out: IC50); “Not Active” in assay [2]; “Not Active” in assay [3]; “Not Active” in assay [4]; “Not Active” in assay [5]. For the same compound, the Ki was 2820 nM in assay [1] (read-out: Ki), “Not Active” in assay [4] and “Not Active” in assay [5].
In the case of `Brc1c(NC2=NCCN2)ccc2nccnc12` [BRIMONIDINE], the concentration for half-maximal inhibition (IC50) entry in assay [1] was “Not Active”; in assay [2] it was “Not Active”; in assay [4] (read-out: IC50) it was 74 nM; in assay [5], “Not Active”. The inhibitory constant (Ki) entry in assay [1] is “Not Active”; in assay [4] (read-out: Ki), 49 nM; in assay [5], “Not Active”.
For the compound `COc1cc(N)c(Cl)cc1C(=O)NC1CCN(CCCOc2ccc(F)cc2)CC1OC` (configuration not stated) [CISAPRIDE], the IC50 in assay [1] (read-out: IC50) was 530 nM; in assay [2], “Not Active”; in assay [4], “Not Active”; in assay [5] it was “Not Active”. The inhibitory constant (Ki) in assay [1] (read-out: Ki) is 515 nM; in assay [4], “Not Active”; in assay [5], “Not Active”.
With `N=C(N)NC(=O)Cc1c(Cl)cccc1Cl` [GUANFACINE], the IC50 entry in assay [1] was “Not Active”; in assay [2], “Not Active”; in assay [4] (read-out: IC50) it was 45 nM; in assay [5], “Not Active”. Further, the inhibition constant Ki result in assay [1] is “Not Active”; in assay [4] (read-out: Ki), 30 nM; in assay [5], “Not Active”.
Consider `COc1cc2nc(N3CCN(C(=O)c4ccco4)CC3)nc(N)c2cc1OC` [PRAZOSIN], for which the IC50 result in assay [1], in assay [2] and in assay [5] was “Not Active” throughout. Besides, the Ki entry is “Not Active” in assay [1], 633 nM in assay [4] (read-out: Ki) and “Not Active” in assay [5].
